Read-outs that look alike come from different tables or passages of the source. Values belong to the compound of their own block, whether it stands above or below them.
How the values were obtained:
TAS1R2/TAS1R3 = molecular target: T1, TAS1R2/TAS1R3 (Homo sapiens, UniProt Q7RTX0+Q8TE23); assay: Calcium mobilization assay, HEK293T-Gα16gust44 cells expressing TAS1R2/TAS1R3; assay type: cell-based
T1 construct: we performed functional expression of the full-length heterodimeric sweet taste TAS1R2/TAS1R3 receptor using HEK293-derived cells; expressed in transfected cells; host or cells: HEK293T-Gα16gust44 cells transfected with pcDNA6-TAS1R2 and pcDNA4-TAS1R3
T1 sequence (Q8TE23 20-839): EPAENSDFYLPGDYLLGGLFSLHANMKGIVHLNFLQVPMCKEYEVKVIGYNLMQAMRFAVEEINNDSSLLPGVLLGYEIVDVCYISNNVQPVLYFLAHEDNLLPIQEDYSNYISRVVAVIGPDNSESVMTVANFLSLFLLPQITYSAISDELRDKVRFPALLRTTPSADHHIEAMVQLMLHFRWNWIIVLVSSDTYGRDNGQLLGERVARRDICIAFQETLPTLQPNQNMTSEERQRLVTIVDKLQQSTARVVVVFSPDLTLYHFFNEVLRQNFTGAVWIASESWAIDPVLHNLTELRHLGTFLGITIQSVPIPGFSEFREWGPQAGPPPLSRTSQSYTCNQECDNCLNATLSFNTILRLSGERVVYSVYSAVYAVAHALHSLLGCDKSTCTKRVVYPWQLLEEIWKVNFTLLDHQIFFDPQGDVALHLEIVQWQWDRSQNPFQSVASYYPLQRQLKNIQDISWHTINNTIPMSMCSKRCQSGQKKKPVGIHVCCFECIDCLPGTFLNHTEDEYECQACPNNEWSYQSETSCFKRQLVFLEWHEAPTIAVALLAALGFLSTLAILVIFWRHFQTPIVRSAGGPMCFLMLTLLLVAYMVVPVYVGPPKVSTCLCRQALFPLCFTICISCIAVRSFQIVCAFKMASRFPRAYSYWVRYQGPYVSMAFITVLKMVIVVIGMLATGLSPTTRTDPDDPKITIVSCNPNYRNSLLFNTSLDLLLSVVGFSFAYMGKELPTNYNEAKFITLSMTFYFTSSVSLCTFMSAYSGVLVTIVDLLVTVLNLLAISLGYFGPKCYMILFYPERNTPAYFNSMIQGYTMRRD
T1 sequence (Q7RTX0 21-852): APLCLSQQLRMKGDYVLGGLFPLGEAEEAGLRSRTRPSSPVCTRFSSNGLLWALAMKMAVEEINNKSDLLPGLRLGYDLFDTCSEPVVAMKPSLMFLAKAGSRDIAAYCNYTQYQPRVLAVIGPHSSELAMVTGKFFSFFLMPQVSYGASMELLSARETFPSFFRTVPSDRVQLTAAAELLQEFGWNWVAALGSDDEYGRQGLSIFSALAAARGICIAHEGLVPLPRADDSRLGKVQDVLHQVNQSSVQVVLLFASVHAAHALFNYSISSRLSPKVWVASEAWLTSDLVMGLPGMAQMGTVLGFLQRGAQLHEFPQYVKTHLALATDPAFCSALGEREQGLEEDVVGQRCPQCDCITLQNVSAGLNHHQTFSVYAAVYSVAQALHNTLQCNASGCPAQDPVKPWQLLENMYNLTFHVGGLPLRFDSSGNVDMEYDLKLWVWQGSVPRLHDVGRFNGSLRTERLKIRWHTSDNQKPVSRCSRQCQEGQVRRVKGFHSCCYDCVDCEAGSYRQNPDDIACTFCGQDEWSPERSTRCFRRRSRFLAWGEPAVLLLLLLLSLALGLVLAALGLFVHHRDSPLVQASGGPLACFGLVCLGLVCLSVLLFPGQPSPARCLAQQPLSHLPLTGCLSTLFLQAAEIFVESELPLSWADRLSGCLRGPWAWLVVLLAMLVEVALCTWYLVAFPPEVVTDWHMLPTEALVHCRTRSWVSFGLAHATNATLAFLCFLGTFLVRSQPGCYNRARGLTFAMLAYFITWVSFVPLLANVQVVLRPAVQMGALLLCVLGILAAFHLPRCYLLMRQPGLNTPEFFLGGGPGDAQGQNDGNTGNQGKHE
Method: (§1) The synthetic cDNA optimized for human TAS1R2 and TAS1R3 expression was cloned into the pcDNA6-myc-HisA and pcDNA4-myc-HisA vectors, generating the pcDNA6-TAS1R2 and pcDNA4-TAS1R3 plasmids, respectively (Genewiz).
(§2) The stable HEK293T-Gα16gust44 cells were constructed by stable transfection of pcDNA3.1/Hygro-Gα16gust44 plasmid into HEK293T cells using Lipofectamine 2000 (Invitrogen). After 48 h, the cells were selected with 400 μg/mL hygromycin for 2–3 weeks. Thirty individual hygromycin-resistant colonies were expanded and screened for functional expression after transient co-transfection with pcDNA6-TAS1R2 and pcDNA4-TAS1R3 and measurement of calcium responses to sucralose. In the same way, clone selection was done under zeocin selection (250 μg/mL) to generate a stable HEK293T-Gα16gust44-TAS1R3 cell line for further calcium mobilization assays.
(§3) Forty-eight hours before the assay, HEK293T-Gα16gust44 or HEK293T-Gα16gust44-TAS1R3 cells were plated (4 × 10^4 cells/well) on poly-D-lysine-coated 96-well plates. Twenty-four hours later, cells were transiently transfected with pcDNA6-TAS1R2 and pcDNA4-TAS1R3 with Lipofectamine 2000 according to the manufacturer's instructions. As a negative control, HEK293T cells were mock-transfected with the empty expression vector. […] The fluorescence intensity was measured for 90 s after the addition of the compounds. […] All concentration-receptor combinations were measured in triplicate, and each experiment was repeated at least four times. The Ca^2+ changes are expressed as fractional changes in fluorescence light intensity: ΔF/F0 = (F—F0)/F0, where F is the fluorescence light intensity at each point and F0 is the value of emitted fluorescent light before the stimulus application. For the calculation of dose-response relationships, the changes in fluorescence upon stimulus application were averaged, mock-subtracted and baseline-corrected. The resulting dose-response data were fitted using a four-parameter logistic equation. The half-maximal effective concentrations (EC50 values) were calculated using SigmaPlot software.

TAS1R3 = molecular target: T2, TAS1R3 (Homo sapiens, UniProt Q7RTX0); assay: Calcium mobilization assay, HEK293T-Gα16gust44 cells stably expressing TAS1R3 alone; assay type: cell-based
T2 construct: we performed functional expression of the full-length heterodimeric sweet taste TAS1R2/TAS1R3 receptor using HEK293-derived cells; expressed in transfected cells
T2 sequence (Q7RTX0 21-852): T1 sequence (Q7RTX0 21-852)
Method: as §1, §2, §3

TAS1R1-VFT = molecular target: T3, TAS1R1-VFT (Homo sapiens, UniProt Q7RTX1); assay: Ligand binding by intrinsic tryptophan fluorescence, TAS1R1-VFT
T3 construct: followed by TAS1R1-VFT (Phe21-Ser495) or TAS1R2-VFT (Ala22-Ser493) and a second His6-tag; His6-tag (thrombin-cleavable) (N); made in house
T3 sequence (Q7RTX1 21-495): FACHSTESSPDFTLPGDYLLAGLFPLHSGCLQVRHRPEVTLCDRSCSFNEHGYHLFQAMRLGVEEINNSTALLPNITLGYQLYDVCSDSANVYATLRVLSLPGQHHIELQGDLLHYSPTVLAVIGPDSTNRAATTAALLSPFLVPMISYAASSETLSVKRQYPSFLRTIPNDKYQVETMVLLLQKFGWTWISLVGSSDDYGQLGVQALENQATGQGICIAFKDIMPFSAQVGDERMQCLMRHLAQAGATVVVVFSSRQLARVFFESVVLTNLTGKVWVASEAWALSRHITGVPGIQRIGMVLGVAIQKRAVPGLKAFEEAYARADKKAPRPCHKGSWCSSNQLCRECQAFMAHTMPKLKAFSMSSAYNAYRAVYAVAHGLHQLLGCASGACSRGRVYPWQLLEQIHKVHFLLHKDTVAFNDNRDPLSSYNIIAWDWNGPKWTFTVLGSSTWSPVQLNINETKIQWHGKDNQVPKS
Method: The intrinsic fluorescence of TAS1R-VFTs was measured using a Cary Eclipse spectrofluorometer (Varian Instruments, Palo Alto, CA, USA) equipped with a Peltier temperature control unit. […] Ligand solutions were freshly prepared in the same buffer. […] The temperature was kept constant at 20 °C. Fluorescence measurements were corrected for dilution, bleaching and nonspecific buffer quenching. Kd values and standard errors were calculated from a plot of the ratio between the fluorescence intensity variation and the maximum of fluorescence intensity variation versus concentration of total ligand, obtained with a standard non-linear regression method and using a one-site saturation ligand binding equation within SigmaPlot software (version 15.0, Grafiti, Palo Alto, CA, USA). […] The Kd values of ligand-receptor interactions were determined using the equation ΔF/ΔFmax = Bmax [L]/(Kd + [L]), where Kd is the apparent dissociation constant, ΔF is the difference between the fluorescence intensity at a given concentration of ligand and the fluorescence intensity in the absence of ligand, ΔFmax is the difference at infinite ligand concentration [L], Bmax is the maximum fluorescence signal, and [L] corresponds to the concentration of ligands. The reported Kd values are the average of six measurements performed on at least three independently refolded protein samples. […]

TAS1R3-VFT = molecular target: T4, TAS1R3-VFT (Homo sapiens, UniProt Q7RTX0); assay: Ligand binding by intrinsic tryptophan fluorescence, TAS1R3-VFT
T4 construct: pET28-TAS1R3-VFT encodes an N-terminal His6-tag followed by TAS1R3-VFT (Ala21-Ser497) and the Strep-tag II; made in house
T4 sequence (Q7RTX0 21-497): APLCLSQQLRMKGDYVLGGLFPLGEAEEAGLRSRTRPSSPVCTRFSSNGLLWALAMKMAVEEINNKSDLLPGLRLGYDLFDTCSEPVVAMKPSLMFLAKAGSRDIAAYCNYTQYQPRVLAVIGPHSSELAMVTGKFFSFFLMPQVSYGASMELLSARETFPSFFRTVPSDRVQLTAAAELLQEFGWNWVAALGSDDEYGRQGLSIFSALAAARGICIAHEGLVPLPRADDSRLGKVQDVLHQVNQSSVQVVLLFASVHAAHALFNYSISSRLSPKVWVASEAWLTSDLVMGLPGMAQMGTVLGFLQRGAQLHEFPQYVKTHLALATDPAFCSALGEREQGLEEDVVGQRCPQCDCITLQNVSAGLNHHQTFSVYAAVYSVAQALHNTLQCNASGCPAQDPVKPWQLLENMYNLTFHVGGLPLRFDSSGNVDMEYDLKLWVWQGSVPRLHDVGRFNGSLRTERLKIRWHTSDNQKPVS
Method: The intrinsic fluorescence of TAS1R-VFTs was measured using a Cary Eclipse spectrofluorometer (Varian Instruments, Palo Alto, CA, USA) equipped with a Peltier temperature control unit. […] Ligand solutions were freshly prepared in the same buffer. […] The temperature was kept constant at 20 °C. Fluorescence measurements were corrected for dilution, bleaching and nonspecific buffer quenching. Kd values and standard errors were calculated from a plot of the ratio between the fluorescence intensity variation and the maximum of fluorescence intensity variation versus concentration of total ligand, obtained with a standard non-linear regression method and using a one-site saturation ligand binding equation within SigmaPlot software (version 15.0, Grafiti, Palo Alto, CA, USA). […] The Kd values of ligand-receptor interactions were determined using the equation ΔF/ΔFmax = Bmax [L]/(Kd + [L]), where Kd is the apparent dissociation constant, ΔF is the difference between the fluorescence intensity at a given concentration of ligand and the fluorescence intensity in the absence of ligand, ΔFmax is the difference at infinite ligand concentration [L], Bmax is the maximum fluorescence signal, and [L] corresponds to the concentration of ligands. The reported Kd values are the average of six measurements performed on at least three independently refolded protein samples. All compounds were obtained from Sigma-Aldrich. Statistical analyses: Dunnett's test (p ≤ 0.05) was used to determine the statistical significance between data means.

[1] = sweet compound alone (Fig. 3, IMP series)
[2] = sweet compound alone (Fig. 5c,d, MSG series)

EC50 (TAS1R2/TAS1R3; [1]): 24 ± 2 µM
Compound: C=C(C)C1CC=C(/C=N/O)CC1 (stereo in doubt) [Perillartine, perillartine]

amplitude of the maximum calcium-induced response of TAS1R3 reduced to (TAS1R3; modulator at 10 mM, CaCl2 stimulation): ~62%
EC50 (TAS1R2/TAS1R3; [1]): 2310 ± 954 µM
Compound: O=S(=O)(O)NC1CCCCC1 [Cyclamate, cyclamate]

EC50 (TAS1R2/TAS1R3; [1]): 41 ± 29 µM
Compound: COc1ccc(CCC(=O)c2c(O)cc(O[C@@H]3O[C@H](CO)[C@@H](O)[C@H](O)[C@H]3O[C@@H]3O[C@@H](C)[C@H](O)[C@@H](O)[C@H]3O)cc2O)cc1O [NHDC, neohesperidine dihydrochalcone]

EC50 (TAS1R2/TAS1R3; [1]): 57 ± 13 µM
EC50 (TAS1R2/TAS1R3; [2]): 56 ± 6 µM
decrease in EC50 values by IMP (synergistic effect) (TAS1R2/TAS1R3; sweetener with IMP vs sweetener alone): 3 fold
Compound: OC[C@H]1O[C@H](O[C@]2(CCl)O[C@H](CCl)[C@@H](O)[C@@H]2O)[C@H](O)[C@@H](O)[C@H]1Cl [Sucralose, sucralose]

The remaining lines, values behind:

Compound: [Ca+2].[Cl-].[Cl-] [CaCl2]
EC50 (TAS1R3; CaCl2 alone, TAS1R3 alone): 47000 ± 13000 µM
max (maximal amplitude, ΔF/F0) (TAS1R3; CaCl2 alone, TAS1R3 alone): 0.37
max (maximal amplitude, ΔF/F0) (TAS1R3; CaCl2 in the presence of 10 mM IMP, TAS1R3 alone): 0.17
max (maximal amplitude, ΔF/F0) (TAS1R3; CaCl2 in the presence of 10 mM cyclamate, TAS1R3 alone): 0.14
EC50 (TAS1R2/TAS1R3; CaCl2 alone, TAS1R2/TAS1R3): 28000 ± 3000 µM
max (maximal amplitude, ΔF/F0) (TAS1R2/TAS1R3; CaCl2 alone, TAS1R2/TAS1R3): 0.40
max (maximal amplitude, ΔF/F0) (TAS1R2/TAS1R3; CaCl2 in the presence of 10 mM IMP, TAS1R2/TAS1R3): 0.28
max (maximal amplitude, ΔF/F0) (TAS1R2/TAS1R3; CaCl2 in the presence of 10 mM cyclamate, TAS1R2/TAS1R3): 0.19

Compound: N[C@H](CCC(=O)O)C(=O)O [D-Glu, D-glutamate]
impact on the fluorescence intensity of TAS1R1-VFT (TAS1R1-VFT; negative control): no significant impact
Kd TAS1R3-VFT (TAS1R3-VFT; ligand alone, absence of IMP, mean ± SEM, 20 °C, pH 8.0): nb
impact on the fluorescence intensity of TAS1R3-VFT (TAS1R3-VFT; negative control): no significant impact

Compound: N[C@@H](CC(=O)O)C(=O)O [L-Asp, L-aspartate]
Kd (TAS1R1-VFT): 0.21 ± 0.06 µM
Kd (TAS1R3-VFT; read-out: Kd TAS1R3-VFT): 1.18 ± 0.33 µM

Compound: N[C@@H](CCC(=O)O)C(=O)O [L-Glu, L-glutamate]
Kd (TAS1R3-VFT): 0.75 ± 0.2 µM

Compound: COC(=O)[C@H](Cc1ccccc1)NC(=O)[C@H](CC(=O)O)NCCC(C)(C)C [Neotame, neotame]
EC50 (TAS1R2/TAS1R3; [1]): 0.97 ± 0.12 µM
EC50 (TAS1R2/TAS1R3; sweet compound alone (Fig. 5a,b, GMP series)): 0.3 ± 0.08 µM
EC50 (TAS1R2/TAS1R3; [2]): 1.09 ± 0.16 µM
